Reference: patent US5585380A, “Modulation of cellular response to external stimuli” (priority 1995, dated 1996)

What was measured:
[1] = tested on: PA and DAG levels in human glomerular mesangial cells; assay: Invention assay: HPLC of lipids from IL-1-stimulated mesangial cells; assay type: cell-based
Protocol: The compounds of Formula I are shown to modulate the effects of primary stimuli which elevate levels of the relevant subspecies of PA and DAG using the assay system of the invention. In general for the assay, the cells to be tested are first incubated with the primary stimulating agent for various time periods and fixed in ice-cold methanol. The lipids are extracted using, for example, chloroform:methanol 2:1 (v/v), and the extracts are then subjected to HPLC as described by Bursten and Harris, Biochemistry (1991)------. In this method, a Rainin mu-Porasil column is used with a 3:4 hexane:propanol organic carrier and a 1-10% water gradient during the first 10 minutes of separation. Detection of the peaks in the elution pattern is by absorption in the range of ultraviolet which detects isolated double bonds. Thus, the relevant peaks of unsaturated PA and DAG are shown in the elution pattern. It is important to note that the assay method permits discrimination between various forms of PA and DAG so that those relevant to the pathway affected by the compounds of Formula I can be measured directly. Confirmation of the nature of the acyl substituents of these components is accomplished using fast-atom bombardment mass spectroscopy. Thus, the relevant unsaturated (non-arachidonic) PA and DAG subspecies may be detected. The time periods employed are 5-60 seconds after stimulation with the primary stimulus, such as a cytokine. This technique permits assessment of the levels of various lipid components as a function of time.
To test the effect of the compounds of the invention, the candidate compound is included in the initial incubation at various concentrations. Fixing, extraction and HPLC are conducted as above. The effect of the candidate compound is then reflected in a lowering of the relevant PA and DAG levels as compared to the cells without candidate in the control as illustrated hereinbelow.
(§1) Human glomerular mesangial cells were incubated with IL-1 for various time periods of 5-60 seconds and the cells were fixed in ice-cold methanol, and the lipids extracted using chloroform:methanol 2:1 (v/v). It is very important that the fixing/extraction process be conducted quickly so that the decomposition of unstable intermediates is halted.
The extracts were subjected to HPLC on a Rainin mu-Porasil column with a 3:4 hexane:propanol organic carrier and a 1-10% water gradient during the first 10 minutes of separation. The relative concentration of each lipid species is determined using absorption at 206 nm (A206), which follows unsaturated acyl content of lipid species. […] The absolute mass of each lipid species is determined by lisolation of the lipid using a fraction collector, repurification on the HPLC column. […] Protein concentration is determined using the Bradford technique. […]

[2] = tested on: phosphatidic acid phosphohydrolase (PAPH); assay: Invention assay: HPLC of lipids from IL-1-stimulated mesangial cells, PAPH; assay type: cell-based, human; settings: 0.5 mM; subsequent determinations
Protocol: (§2) This example also illustrates the method of the invention.
as §1
(§3) The extracts were subjected to HPLC on a Rainin mu-Porasil column with a 3:4 hexane:propanol organic carrier and a 1-10% water gradient during the first 10 minutes of separation. The relative concentration of each lipid species is determined using absorption at 206 nm (A206), which follows unsaturated acyl content of lipid species. […] The absolute mass of each lipid species is determined by lisolation of the lipid using a fraction collector, repurification on the HPLC column. Determination of phospholipid phosphorus is as nmoles/mg cellular protein. Protein concentration is determined using the Bradford technique.

[3] = tested on: lyso-PA acyl transferase (LPAAT); assay: Invention assay: HPLC of lipids from IL-1-stimulated mesangial cells, LPAAT; assay type: cell-based, human; settings: compared with 0.5 mM; subsequent determinations
Protocol: as §2, §1, §3

[4] = tested on: NIH3T3 cell line (D5C3) transformed with temperature-sensitive v-abl mutant gene; assay: Blocking transformed phenotype of D5C3 cells; assay type: cell-based, murine; settings: 1 mM pentoxifylline; 33° C., 5 days
Protocol: An NIH3T3 cell line ([MUT]) provides target cells which were transformed by an activated oncogene. The cells were transformed with a temperature-sensitive v-abl mutant gene. This mutant gene encodes a temperature-sensitive v-abl protein that produces a non-oncogenic product at a non-permissive temperature due to a lack of tyrosine phosphorylation. The cells were incubated at the permissive temperature (33° C.) for 5 days after passage with and without pentoxifylline (1 mM).

[5] = tested on: NIH3T3 murine fibroblast cells transformed with a mutated K-ras; assay: Growth and soft agar colonies of K-ras transformed NIH3T3 cells in vitro; assay type: cell-based; settings: concentrations at or greater than 0.5 mM
Protocol: Additionally, NIH3T3 murine fibroblast cells transformed with a mutated K-ras (codon 12 Gly-Val) were tested in vitro and in nude mice.

[6] = tested on: SV40 T-antigen-transformed human kidney mesangial cells; assay: Tritiated thymidine uptake of transformed mesangial cells with rhIL-1 or TNFα; assay type: cell-based
Protocol: SV40 T-antigen-transformed human kidney mesangial cells were cultured under standard conditions with rhIL-1 or with TNFα with and without pentoxifylline (PTX). Transformed mesangial cells grow independently of added growth factors, but IL-1 and TNFα are the normal proliferative signals for mesangial cells. As was shown in Example 1, when IL-1 is added to kidney mesangial cells, within 30 seconds LPAAT and PAPH are activated; the effect of both of these enzymes is inhibited by pentoxifylline at 1 mM. In this experiment, the growth of the treated cells was measured using tritiated thymidine uptake.

[7] = tested on: human leukemic cell line (Mo7e); assay: GM-CSF-stimulated colony formation in semisolid medium; assay type: cell-based; settings: rhGM-CSF; colonies counted after 10 days; FIG. 14
Protocol: The human leukemic cell line (Mo7e) is dependent on added granulocyte-macrophage colony-stimulating factor (GM-CSF) for growth. Mo7e cells were cultured in semisolid medium with and without pentoxifylline (PTX) and rhGM-CSF. Colonies were counted 10 days after culture initiation under an inverted microscope. […] PTX thus prevents the up-regulation of activation-associated genes which inhibit proliferation.

[8] = tested on: TNFα transcripts in U937 cells; assay: Northern blot of TNFα transcripts after LPS induction; assay type: cell-based; settings: 1 mM PTX; LPS three hours; FIG. 15
[9] = tested on: IL-6 transcripts in bone marrow stromal cells; assay: Northern blot of IL-6 transcripts; assay type: cell-based; settings: three-hour exposure, increasing concentrations; FIG. 16
[10] = tested on: Steel factor transcripts in marrow stromal cell lines; assay: Northern blot of Steel factor transcripts; assay type: cell-based; settings: three-hour incubation; passaged or cloned (CDCL) marrow stromal cell lines; FIGS. 17 and 18
CD3-positive lymphocytes = assay: Proliferation of anti-CD3-stimulated CD2-positive cells (thymidine uptake); assay type: cell-based; settings: CD2-positive T-cells, adsorbed monoclonal antibody 64.1, harvested after 5 days; IL-1 or TNF failed to reverse; FIG. 21
Protocol: In these experiments, freshly isolated, CD2-positive cells were stimulated by a solid-phase monoclonal antibody to acquire a CD3 phenotype, and then PTX was added. […] The block in proliferation could not be overcome by addition of either tumor necrosis factor (FIGS. 20 and 21) or IL-1 (FIG. 21). […] The cytokines and PTX were added at culture inception and the cells were harvested after 5 days.

[11] = tested on: TNF, IL-2 and IL-2 receptor transcripts in CD3 positive lymphocytes; assay: Northern blots of CD3 positive lymphocytes in a mixed lymphocyte reaction; assay type: cell-based
[12] = tested on: IL-8 encoding mRNA in U937 and THP1 monocytic cell lines; assay: Northern blot of IL-8 mRNA after lipopolysaccharide or GM-CSF; assay type: cell-based; settings: induced by lipopolysaccharide or GM-CSF
Protocol: The murine fibrosarcoma cell line, L929, was also tested as an indicator for assays of TNF cytotoxicity. Cell growth was assayed by crystal violet staining using optical density as a measure of growth. […] Finally, two monocytic cell lines, U937 and THP1, were used to test the effect of pentoxifylline on the […] of the cytokine IL-8. The cell lines in culture were induced to upregulate IL-8 production by lipopolysaccharide or GM-CSF.

T cell proliferation = settings: Singer et al., cited from earlier work
[13] = tested on: HLA-DR, CD71, CD25 and CD69 on MLR-stimulated lymphocytes; settings: Singer et al.; cited from earlier work
TNFα = settings: Singer et al.; cited from earlier work

Q: Which “cyclical formation of PA and conversion of PA to DAG (HPLC)” value ([1]; 100 μM pentoxifylline, 10^-11 M IL-1, 15- and 60-second points) does the source give for CC(=O)CCCCn1c(=O)c2c(ncn2C)n(C)c1=O [Pentoxifylline] here?
A: no change

Q: What about the “conversion of PA to DAG (HPLC)” value ([1]; 500 μM pentoxifylline, IL-1, 15 second time point) of the same compound?
A: slight attenuation

Q: What about the “elevation of PA and DAG by IL-1 (HPLC)” value ([1]; 1 mM PTX, all time points (15-60 seconds)) of the same compound?
A: abolishes the elevation of PA and DAG

Q: And the “inhibition of PAPH” value [2]?
A: inhibits PAPH

Q: And the “inhibitory effect on LPAAT” value [3]?
A: evident only at higher concentrations

Q: What about the appearance of cells [4] of the same compound?
A: predominantly non-transformed, fibroblastic appearance

Q: And the “anchorage-independent growth in soft agar” value [5]?
A: suppression of anchorage-independent growth

Q: And the growth in vitro [5]?
A: inhibition of growth

Q: What about the “proliferative effect of TNF (thymidine uptake)” value ([6]; TNFα, FIG. 13B) of the same compound?
A: enhances the proliferative effect of TNF

Q: And the “growth stimulated by IL-1 (thymidine uptake)” value ([6]; rhIL-1, FIG. 13A)?
A: arrested growth

Q: And the “GM-CSF-stimulated growth of colonies” value [7]?
A: enhanced GM-CSF-stimulated growth of colonies

Q: What about the “TNF RNA in response to LPS stimulation” value [8] of the same compound?
A: undetectable level

Q: And the “production of IL-6 transcripts” value [9]?
A: increased production of IL-6 transcripts

Q: And the “levels of Steel factor transcripts” value [10]?
A: increases

Q: And the thymidine uptake (CD3-positive lymphocytes)?
A: diminished by PTX in an concentration-dependent manner

Q: And the TNF transcripts ([11]; FIG. 19A)?
A: suppression

Q: And the IL-2 receptor transcripts ([11]; FIG. 19C)?
A: suppression

Q: What about the “synthesis of IL-8 (mRNA)” value [12] of the same compound?
A: did not inhibit, and indeed may upregulate

Q: And the “proliferative response in a mixed lymphocyte culture” value (T cell proliferation; PTX added after triggering lymphocytes)?
A: still effective in blocking a proliferative response

Q: What about the “proliferation of lymphocytes induced by anti-CD3” value (T cell proliferation; exogenous recombinant TNF or IL-1 did not reverse) of the same compound?
A: suppressed proliferation

Q: What about the “expression of cell surface antigens HLA-DR, CD71, CD25, CD69” value [13] of the same compound?
A: decreased expression

Q: And the “effect on secretion of TNFα versus TNF transcription” value (TNFα)?
A: greater effect on secretion of TNFα
